Assay [1] addresses Histone deacetylase 4 (Homo sapiens, UniProt P56524). Put plainly: Inhibition of HDAC4 (unknown origin).
Assay [2] concerns the target Histone deacetylase 9 (Homo sapiens, UniProt Q9UKV0). Put plainly: Inhibition of HDAC9 (unknown origin).
Assay [3] deals with Histone deacetylase 1 (Homo sapiens, UniProt Q13547). Put plainly: Inhibition of recombinant full length human C-terminal FLAG/His-tagged HDAC1 expressed in baculovirus expression system using fluorophore-conjugated substrate by fluorescence assay.
The target in assay [4] is Histone deacetylase 5 (Homo sapiens, UniProt Q9UQL6). In words: Inhibition of HDAC5 (unknown origin).
In assay [5] the target is Histone deacetylase 3 (Homo sapiens, UniProt O15379). In words: Inhibition of recombinant full length human C-terminal His-tagged HDAC3 expressed in sf9 cells co-expressing human N-terminal GST-tagged NCOR2 (395 to 489 residues) using fluorophore-conjugated substrate by fluorescence assay.
In assay [6] the target is T1, Histone deacetylase 7 (Homo sapiens) (UniProt Q8WUI4).
T1 sequence (whole entry): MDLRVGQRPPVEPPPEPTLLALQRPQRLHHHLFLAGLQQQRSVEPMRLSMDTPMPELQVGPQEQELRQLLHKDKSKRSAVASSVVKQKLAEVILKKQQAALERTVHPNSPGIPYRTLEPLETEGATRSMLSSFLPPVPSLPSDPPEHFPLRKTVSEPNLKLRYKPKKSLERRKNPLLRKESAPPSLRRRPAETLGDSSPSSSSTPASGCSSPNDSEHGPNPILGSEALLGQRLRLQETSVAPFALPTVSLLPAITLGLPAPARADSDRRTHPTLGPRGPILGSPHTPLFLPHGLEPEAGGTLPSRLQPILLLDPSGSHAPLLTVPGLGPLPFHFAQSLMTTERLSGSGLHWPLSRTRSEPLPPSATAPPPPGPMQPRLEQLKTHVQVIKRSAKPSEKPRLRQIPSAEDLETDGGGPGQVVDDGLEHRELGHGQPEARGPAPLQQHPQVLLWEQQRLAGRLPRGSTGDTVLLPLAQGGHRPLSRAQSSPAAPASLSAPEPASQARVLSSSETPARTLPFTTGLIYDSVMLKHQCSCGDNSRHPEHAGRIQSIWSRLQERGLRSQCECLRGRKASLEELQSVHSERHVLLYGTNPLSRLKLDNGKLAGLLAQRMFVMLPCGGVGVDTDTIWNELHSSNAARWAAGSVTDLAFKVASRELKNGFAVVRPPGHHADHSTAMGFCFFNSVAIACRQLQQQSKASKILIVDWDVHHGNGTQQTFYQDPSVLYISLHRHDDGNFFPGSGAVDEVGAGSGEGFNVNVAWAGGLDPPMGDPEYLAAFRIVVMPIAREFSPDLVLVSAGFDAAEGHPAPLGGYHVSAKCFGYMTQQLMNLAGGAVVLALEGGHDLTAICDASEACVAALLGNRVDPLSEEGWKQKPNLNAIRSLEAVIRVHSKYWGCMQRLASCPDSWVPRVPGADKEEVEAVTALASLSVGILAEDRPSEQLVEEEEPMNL
Put plainly: (§1) Inhibition of HDAC7 (unknown origin).

Assay [7] has as its target T2, Protein deacetylase HDAC6 (Homo sapiens) (UniProt Q9UBN7).
T2 sequence (whole entry): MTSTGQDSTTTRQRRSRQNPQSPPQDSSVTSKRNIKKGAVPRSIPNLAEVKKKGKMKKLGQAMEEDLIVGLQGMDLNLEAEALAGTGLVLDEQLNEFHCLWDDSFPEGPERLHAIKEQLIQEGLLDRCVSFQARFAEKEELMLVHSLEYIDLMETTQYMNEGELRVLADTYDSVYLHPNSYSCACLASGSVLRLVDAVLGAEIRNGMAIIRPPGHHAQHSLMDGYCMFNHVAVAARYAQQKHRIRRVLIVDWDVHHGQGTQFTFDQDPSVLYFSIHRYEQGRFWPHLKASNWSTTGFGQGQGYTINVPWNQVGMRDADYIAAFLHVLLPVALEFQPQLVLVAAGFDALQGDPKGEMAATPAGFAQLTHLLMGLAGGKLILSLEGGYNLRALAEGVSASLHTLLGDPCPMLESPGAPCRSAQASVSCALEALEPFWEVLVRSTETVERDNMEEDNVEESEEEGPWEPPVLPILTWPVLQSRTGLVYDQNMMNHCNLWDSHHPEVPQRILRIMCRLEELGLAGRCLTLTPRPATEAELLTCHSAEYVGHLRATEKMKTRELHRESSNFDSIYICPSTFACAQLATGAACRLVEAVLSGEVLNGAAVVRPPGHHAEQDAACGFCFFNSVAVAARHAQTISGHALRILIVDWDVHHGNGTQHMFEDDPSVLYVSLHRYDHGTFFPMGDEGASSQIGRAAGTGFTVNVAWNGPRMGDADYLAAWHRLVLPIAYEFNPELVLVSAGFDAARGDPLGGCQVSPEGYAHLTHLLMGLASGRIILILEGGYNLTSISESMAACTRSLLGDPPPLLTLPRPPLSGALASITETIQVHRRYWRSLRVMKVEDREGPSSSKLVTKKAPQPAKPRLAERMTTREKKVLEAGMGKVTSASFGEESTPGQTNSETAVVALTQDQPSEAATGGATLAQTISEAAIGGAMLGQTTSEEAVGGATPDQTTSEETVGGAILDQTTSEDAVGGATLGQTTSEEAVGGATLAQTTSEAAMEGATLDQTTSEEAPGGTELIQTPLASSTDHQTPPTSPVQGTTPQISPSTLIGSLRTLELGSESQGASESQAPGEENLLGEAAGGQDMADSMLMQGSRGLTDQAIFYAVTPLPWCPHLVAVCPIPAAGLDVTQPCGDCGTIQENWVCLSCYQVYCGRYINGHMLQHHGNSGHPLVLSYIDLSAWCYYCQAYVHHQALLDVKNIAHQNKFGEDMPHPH
In words: (§2) Inhibition of recombinant full length human HDAC6 expressed in sf9 cells using fluorophore-conjugated substrate by fluorescence assay.

Assay [8] addresses Histone deacetylase 2 (Homo sapiens, UniProt Q92769). Put plainly: Inhibition of recombinant full length human HDAC2 expressed in sf9 cells using fluorophore-conjugated substrate by fluorescence assay.
For assay [9], the target named is T3, Histone deacetylase 8 (Homo sapiens) (UniProt Q9BY41).
T3 sequence (whole entry): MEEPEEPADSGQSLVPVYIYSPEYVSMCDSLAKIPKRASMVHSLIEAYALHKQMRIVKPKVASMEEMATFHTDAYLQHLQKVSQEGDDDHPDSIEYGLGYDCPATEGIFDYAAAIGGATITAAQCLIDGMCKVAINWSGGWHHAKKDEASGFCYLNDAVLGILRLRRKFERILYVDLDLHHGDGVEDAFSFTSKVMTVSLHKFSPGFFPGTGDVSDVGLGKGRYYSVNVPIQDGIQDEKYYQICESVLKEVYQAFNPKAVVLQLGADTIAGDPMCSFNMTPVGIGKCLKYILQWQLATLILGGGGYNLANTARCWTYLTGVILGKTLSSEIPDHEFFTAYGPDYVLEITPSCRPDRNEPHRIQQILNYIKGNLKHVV
Put plainly: (§3) Inhibition of HDAC8 (unknown origin) using fluorophore-conjugated substrate by fluorescence assay.

The target of assay [10] is T4, Histone deacetylase 8 (Homo sapiens, UniProt Q9BY41).
T4 sequence (Q9BY41 whole entry): T3 sequence (whole entry)
The description is as §3.

Assay [11] addresses T5, Histone deacetylase 7 (Homo sapiens, UniProt Q8WUI4).
T5 sequence (Q8WUI4 whole entry): T1 sequence (whole entry)
The description is as §1.

The target of assay [12] is T6, Protein deacetylase HDAC6 (Homo sapiens, UniProt Q9UBN7).
T6 sequence (Q9UBN7 whole entry): T2 sequence (whole entry)
The description is as §2.

Active and inactive are the calls of the source. The calls are words filed in the database; no cut-off is given here.

Histone deacetylase 1, sequence (Q13547 whole entry): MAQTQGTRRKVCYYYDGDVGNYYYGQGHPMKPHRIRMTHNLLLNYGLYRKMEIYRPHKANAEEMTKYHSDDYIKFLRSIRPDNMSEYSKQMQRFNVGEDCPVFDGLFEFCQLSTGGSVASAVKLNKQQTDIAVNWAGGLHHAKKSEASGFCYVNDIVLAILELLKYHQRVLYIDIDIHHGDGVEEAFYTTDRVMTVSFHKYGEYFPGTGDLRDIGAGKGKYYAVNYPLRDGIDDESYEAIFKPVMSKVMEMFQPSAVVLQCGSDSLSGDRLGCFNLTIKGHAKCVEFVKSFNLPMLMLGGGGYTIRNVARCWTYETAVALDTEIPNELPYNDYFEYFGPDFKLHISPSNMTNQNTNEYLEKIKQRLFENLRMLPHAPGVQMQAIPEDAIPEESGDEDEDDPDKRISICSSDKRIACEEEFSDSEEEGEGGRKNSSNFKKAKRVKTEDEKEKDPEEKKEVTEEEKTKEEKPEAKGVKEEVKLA
Histone deacetylase 2, sequence (Q92769 whole entry): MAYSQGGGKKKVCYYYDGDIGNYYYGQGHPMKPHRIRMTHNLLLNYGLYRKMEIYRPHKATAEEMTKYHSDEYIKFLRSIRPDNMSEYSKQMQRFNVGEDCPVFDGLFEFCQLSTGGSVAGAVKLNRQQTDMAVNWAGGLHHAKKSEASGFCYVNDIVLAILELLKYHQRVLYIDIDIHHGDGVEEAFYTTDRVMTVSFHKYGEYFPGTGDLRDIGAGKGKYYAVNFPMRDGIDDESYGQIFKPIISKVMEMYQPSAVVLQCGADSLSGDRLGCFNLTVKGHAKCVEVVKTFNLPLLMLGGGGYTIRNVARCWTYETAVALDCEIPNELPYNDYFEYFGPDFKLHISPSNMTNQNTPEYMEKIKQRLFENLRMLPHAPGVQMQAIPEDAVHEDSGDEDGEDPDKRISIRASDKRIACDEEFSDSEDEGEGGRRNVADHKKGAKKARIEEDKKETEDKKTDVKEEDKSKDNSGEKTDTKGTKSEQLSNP
Histone deacetylase 5, sequence (Q9UQL6 whole entry, the tested form may be a part): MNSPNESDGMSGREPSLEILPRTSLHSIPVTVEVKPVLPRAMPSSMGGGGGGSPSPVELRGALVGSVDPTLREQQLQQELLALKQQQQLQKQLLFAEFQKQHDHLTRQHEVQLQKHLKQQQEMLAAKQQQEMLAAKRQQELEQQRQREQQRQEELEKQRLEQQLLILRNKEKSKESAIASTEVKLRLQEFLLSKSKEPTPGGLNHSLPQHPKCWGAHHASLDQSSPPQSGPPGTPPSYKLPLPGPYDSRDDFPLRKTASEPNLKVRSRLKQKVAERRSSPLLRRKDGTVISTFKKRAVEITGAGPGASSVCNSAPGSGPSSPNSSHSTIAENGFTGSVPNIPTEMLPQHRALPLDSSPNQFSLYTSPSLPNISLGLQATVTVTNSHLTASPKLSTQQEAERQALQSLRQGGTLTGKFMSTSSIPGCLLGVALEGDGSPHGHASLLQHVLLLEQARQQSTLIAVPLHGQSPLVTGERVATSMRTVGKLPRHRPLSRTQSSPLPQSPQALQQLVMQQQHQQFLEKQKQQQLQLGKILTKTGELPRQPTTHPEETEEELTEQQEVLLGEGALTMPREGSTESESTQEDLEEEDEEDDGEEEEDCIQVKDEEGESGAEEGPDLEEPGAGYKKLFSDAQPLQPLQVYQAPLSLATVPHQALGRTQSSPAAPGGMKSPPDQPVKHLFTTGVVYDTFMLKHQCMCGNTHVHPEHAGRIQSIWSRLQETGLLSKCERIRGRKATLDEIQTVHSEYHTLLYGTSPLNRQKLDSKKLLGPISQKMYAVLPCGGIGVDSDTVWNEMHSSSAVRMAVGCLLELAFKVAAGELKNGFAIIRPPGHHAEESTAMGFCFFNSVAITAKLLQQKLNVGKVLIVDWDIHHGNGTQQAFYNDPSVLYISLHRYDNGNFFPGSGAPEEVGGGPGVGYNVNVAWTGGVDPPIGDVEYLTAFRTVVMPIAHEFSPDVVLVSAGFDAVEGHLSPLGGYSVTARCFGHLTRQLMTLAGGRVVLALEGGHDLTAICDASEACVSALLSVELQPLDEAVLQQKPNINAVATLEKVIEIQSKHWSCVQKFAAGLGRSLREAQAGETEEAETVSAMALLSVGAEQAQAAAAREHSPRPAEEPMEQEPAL
Histone deacetylase 3, sequence (O15379 whole entry, the tested form may be a part): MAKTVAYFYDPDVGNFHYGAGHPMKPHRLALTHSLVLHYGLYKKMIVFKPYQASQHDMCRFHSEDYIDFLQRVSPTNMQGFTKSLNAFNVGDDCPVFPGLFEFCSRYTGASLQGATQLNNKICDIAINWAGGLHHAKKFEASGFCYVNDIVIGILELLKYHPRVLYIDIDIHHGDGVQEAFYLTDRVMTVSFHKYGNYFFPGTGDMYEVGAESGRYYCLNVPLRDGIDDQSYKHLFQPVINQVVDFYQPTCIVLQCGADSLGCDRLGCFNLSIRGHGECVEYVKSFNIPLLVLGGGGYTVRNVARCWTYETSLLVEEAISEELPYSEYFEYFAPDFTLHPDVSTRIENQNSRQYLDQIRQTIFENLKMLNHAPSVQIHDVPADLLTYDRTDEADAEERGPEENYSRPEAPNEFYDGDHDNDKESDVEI
Histone deacetylase 4, sequence (P56524 whole entry): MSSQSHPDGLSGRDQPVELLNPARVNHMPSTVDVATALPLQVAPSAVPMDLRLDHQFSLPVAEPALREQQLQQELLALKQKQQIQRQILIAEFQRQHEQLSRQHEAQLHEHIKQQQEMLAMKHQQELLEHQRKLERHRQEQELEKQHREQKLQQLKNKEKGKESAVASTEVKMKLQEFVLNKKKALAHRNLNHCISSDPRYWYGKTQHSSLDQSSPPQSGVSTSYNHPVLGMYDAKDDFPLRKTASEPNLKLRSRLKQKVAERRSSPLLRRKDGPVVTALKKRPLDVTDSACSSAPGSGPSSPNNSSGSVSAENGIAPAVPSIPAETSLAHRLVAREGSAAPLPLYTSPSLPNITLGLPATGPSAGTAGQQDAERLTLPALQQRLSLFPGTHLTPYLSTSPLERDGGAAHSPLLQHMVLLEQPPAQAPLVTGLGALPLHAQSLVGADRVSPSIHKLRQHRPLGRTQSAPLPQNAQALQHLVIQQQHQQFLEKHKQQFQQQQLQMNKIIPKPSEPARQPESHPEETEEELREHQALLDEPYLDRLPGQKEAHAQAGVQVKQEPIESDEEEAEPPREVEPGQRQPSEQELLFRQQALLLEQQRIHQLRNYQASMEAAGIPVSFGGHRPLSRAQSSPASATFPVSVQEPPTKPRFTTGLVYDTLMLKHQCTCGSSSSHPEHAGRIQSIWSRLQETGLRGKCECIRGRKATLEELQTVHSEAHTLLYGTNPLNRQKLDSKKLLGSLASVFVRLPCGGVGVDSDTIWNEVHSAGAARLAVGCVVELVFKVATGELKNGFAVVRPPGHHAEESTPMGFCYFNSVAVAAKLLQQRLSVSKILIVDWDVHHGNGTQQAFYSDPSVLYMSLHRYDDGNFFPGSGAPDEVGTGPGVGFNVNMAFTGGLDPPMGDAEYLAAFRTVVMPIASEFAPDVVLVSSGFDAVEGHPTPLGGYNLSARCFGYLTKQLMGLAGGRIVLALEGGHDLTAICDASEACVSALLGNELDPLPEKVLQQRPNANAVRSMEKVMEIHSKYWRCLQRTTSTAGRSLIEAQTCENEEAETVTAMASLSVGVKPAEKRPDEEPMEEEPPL
Histone deacetylase 9, sequence (Q9UKV0 whole entry): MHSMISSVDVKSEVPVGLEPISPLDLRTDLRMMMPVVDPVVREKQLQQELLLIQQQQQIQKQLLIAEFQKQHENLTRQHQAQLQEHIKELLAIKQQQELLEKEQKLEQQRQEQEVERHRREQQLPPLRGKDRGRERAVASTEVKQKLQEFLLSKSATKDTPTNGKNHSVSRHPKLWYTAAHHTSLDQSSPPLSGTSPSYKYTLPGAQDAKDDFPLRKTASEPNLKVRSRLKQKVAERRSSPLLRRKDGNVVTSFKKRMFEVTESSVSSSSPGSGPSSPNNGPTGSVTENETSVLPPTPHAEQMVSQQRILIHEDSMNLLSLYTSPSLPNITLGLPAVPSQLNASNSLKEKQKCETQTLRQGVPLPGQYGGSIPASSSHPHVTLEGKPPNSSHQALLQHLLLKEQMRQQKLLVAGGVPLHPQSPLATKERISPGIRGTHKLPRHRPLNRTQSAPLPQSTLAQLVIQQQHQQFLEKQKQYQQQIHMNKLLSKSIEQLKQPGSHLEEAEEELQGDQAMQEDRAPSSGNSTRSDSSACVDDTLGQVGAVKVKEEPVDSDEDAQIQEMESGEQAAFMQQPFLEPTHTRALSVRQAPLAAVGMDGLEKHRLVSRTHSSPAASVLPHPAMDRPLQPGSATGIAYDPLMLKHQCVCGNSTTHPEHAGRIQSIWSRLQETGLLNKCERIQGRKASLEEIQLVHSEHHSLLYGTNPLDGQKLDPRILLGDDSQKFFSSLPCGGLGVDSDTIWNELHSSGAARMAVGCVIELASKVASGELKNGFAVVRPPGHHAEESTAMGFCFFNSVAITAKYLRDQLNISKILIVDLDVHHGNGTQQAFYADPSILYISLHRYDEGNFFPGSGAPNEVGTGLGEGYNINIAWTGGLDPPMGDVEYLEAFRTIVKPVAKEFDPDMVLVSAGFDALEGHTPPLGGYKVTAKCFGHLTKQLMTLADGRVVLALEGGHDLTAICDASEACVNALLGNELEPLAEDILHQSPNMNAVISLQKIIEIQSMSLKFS

Take `COC(=O)[C@H](Cc1ccccc1)n1nnc(-c2ccccc2)c1C#Cc1ccccc1`: the inhibition result in assay [1], in assay [2], in [3], in assay [4], in assay [5] and in assay [6] was “inactive” each time. For the same compound, the inhibition result in assay [7], in assay [8] and in [9] was “inactive” throughout.
Broadly, the IC50 is the concentration needed to halve the response being measured. In turn, `CCc1ccc(C#Cc2c(-c3ccccc3)nnn2[C@@H](Cc2ccccc2)C(=O)NO)cc1` came in with an IC50 in assay [10] of 1500 nM.
Consider `O=C(NO)[C@H](Cc1ccccc1)n1nnc(-c2ccccc2)c1C#CC1CC1`, for which the IC50 in [1] was above 20000 nM; in assay [2] it was above 20000 nM; in [3], 4300 nM; in assay [4], above 20000 nM; in assay [5], above 20000 nM; in [11], above 20000 nM. The IC50 in [12] is 1200 nM; in assay [8], above 20000 nM; in assay [10], 0.8 nM.
Turning to `CC(C)(C)c1ccc(-c2nnn([C@@H](Cc3ccccc3)C(=O)NO)c2C#CC2CC2)cc1`, inhibition in assay [10] was half-maximal at 133 nM (IC50).
As for `O=C(NO)[C@H](Cc1ccccc1)n1nnc(-c2ccccc2)c1/C=C/C1CC1`, in assay [9], the inhibition entry was “inactive”.
With `O=C(NO)[C@H](Cc1ccccc1)n1cc(-c2ccccc2)nn1`, the inhibition result in assay [1], in assay [2], in [3], in [4], in assay [5] and in assay [6] was “inactive” in each case. Further, the inhibition entry in [7], in assay [8] and in assay [9] was “inactive” throughout.
On to `CNC(=O)[C@H](Cc1ccccc1)n1nnc(-c2ccccc2)c1C#Cc1ccccc1`, for which the inhibition result in assay [1], in assay [2], in assay [3], in [4], in assay [5] and in [6] was “inactive” in each case. For the same compound, the inhibition result in assay [7], in assay [8] and in [9] was “inactive” in each case.
`CCC/C=C/c1c(-c2ccccc2)nnn1[C@@H](Cc1ccccc1)C(=O)NO` came in with an IC50 in assay [10] of 464 nM.
Take `O=C(NO)[C@H](Cc1ccccc1)n1nnc(-c2ccccc2)c1C#Cc1ccccc1`: the IC50 in assay [1], in [2], in assay [3], in assay [4], in assay [5] and in assay [11] was above 20000 nM throughout. For the same compound, the IC50 in assay [12] was 3600 nM; in [8], above 20000 nM; in assay [10], 10 nM.
In the case of `O=C(NO)[C@H](Cc1ccccc1)n1nnc(-c2cccc(Cl)c2)c1C#CC1CC1`, the concentration for half-maximal inhibition (IC50) in assay [10] was 8 nM.
`O=C(NO)[C@H](Cc1c[nH]c2ccccc12)n1nnc(-c2ccccc2)c1C#CC1CC1`: the IC50 in assay [10] was found to be 7 nM.
`O=C(O)[C@H](Cc1ccccc1)n1nnc(-c2ccccc2)c1C#Cc1ccccc1`: the inhibition entry in assay [1], in assay [2], in assay [3], in assay [4], in assay [5] and in assay [6] was “inactive” throughout. The inhibition entry in [7], in assay [8] and in assay [9] was “inactive” in each case.
Turning to `O=C(NO)[C@H](Cc1ccccc1)n1nnc(-c2ccccc2)c1CCC1CC1`, the inhibition result in [9] was “inactive”.
Consider `O=C(NO)[C@@H](Cc1ccccc1)n1nnc(-c2ccccc2)c1C#Cc1ccccc1`, for which the inhibition result in [1], in assay [2], in [3], in assay [4], in assay [5] and in assay [6] was “inactive” each time. For the same compound, the inhibition result in assay [7], in [8] and in [9] was “inactive” in each case.
`O=C(NO)[C@H](Cc1ccccc1)n1nnc(-c2ccsc2)c1C#CC1CC1` gave an IC50 in assay [10] of 4 nM.
Still for that read-out and setting: for `COc1cc(OC)cc(-c2nnn([C@@H](Cc3ccccc3)C(=O)NO)c2C#CC2CC2)c1` the value was 3 nM; for `CCCCCc1c(-c2ccccc2)nnn1[C@@H](Cc1ccccc1)C(=O)NO`, 160 nM.
The same measure, in the same setting: under `CC(C)[C@@H](C(=O)NO)n1nnc(-c2ccccc2)c1C#Cc1ccccc1` stands 2300 nM; under `O=C(NO)[C@H](Cc1ccccc1)n1nnc(-c2ccccc2)c1C#Cc1ccc(-c2ccccc2)cc1`, 9100 nM.

Source of the values: ChEMBL document CHEMBL4428137, “Development of a Potent and Selective HDAC8 Inhibitor” (ACS Med Chem Lett, 2016).
